The source of these data is patent US7175856B2, “Palatable oral suspension and method” (Bristol-Myers Squibb Company, priority 2002, dated 2007).

This data set is described as follows: physchem. Type of data set: physicochemical.

In the case of `C[C@H]1NCc2cc(-c3ccc4c(=O)c(C(=O)O)cn(C5CC5)c4c3OC(F)F)ccc21` [des-quinolone, 1-Cyclopropyl-8-(difluoromethoxy)-7-[(1R)-1-methyl-2,3-dihydro-1H-5-isoindolyl]-4-oxo-1,4-dihydro-3-quinolinecarboxylic acid methanesulfonate monohydrate], the solubility is ~70 µg/mL (aqueous buffer) and ~17400 µg/mL (water).
